Values joined by “and” are separate entries in the source; they are usually repeats but may differ in a detail not shown here. Equal values may be shown once. Read-outs that look alike come from different tables or passages of the source. * marks the point of attachment. ACC = NC(=O)Cc1cc(=O)oc2cc(N*)ccc12; CH2Cl = ClC*
How the values were obtained:
[1] = target: T1, PR3 (Homo sapiens, UniProt P24158); assay: Fluorogenic substrate hydrolysis kinetics with PR3; type: biochemical
T1 construct: purchased Athens Research Technology, Athens, Georgia, USA
T1 sequence (P24158 28-256): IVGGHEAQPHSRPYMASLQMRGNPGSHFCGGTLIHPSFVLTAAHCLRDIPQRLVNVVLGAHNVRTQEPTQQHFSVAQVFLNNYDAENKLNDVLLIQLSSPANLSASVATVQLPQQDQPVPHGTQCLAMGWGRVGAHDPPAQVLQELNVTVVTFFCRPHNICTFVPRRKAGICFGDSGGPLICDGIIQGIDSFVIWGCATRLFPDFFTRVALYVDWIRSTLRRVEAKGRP
Description: (§1) Kinetic parameters of selected substrates were determined in 50 mM Hepes, 0.1 M NaCl, 0.1%TRITON-X100, pH 7.45 assay buffer on 96 wells Corning plates. Measurements were performed for a minimum of 20 minutes. The excitation wavelength was 355 nm, and the emission wavelength was 460 nm, with a cutoff of 455 nm. Human NE and CatG were purchased from Biocentrum, Krakow, Poland and PR3 from Athens Research Technology, Athens, Georgia, USA. Recombinant human NSP4 was expressed and purified as previously described.
(§2) In addition to NSP4, neutrophils contain three other structurally-related serine proteases NE, PR3 and CatG [1] that are also stored in azurophilic granules. To estimate the degree of eventual cross reactivity of the optimal substrate with these three serine proteases, we measured kinetic parameters for each enzyme on PK421. […] In the case of CatG we were unable to saturate the enzyme and therefore could not calculate the individual values of kcat and Km.

[2] = target: T2, NSP4 (Homo sapiens, UniProt Q6UWY2); assay: SDS-PAGE / streptavidin blot labeling of purified NSP4 by probe; type: binding; conditions: 100 nM NSP4 preincubated with inhibitor 30 min 37°C, then PK401 up to 2000 nM for 20 min
T2 construct: made in house
T2 sequence (Q6UWY2 32-283): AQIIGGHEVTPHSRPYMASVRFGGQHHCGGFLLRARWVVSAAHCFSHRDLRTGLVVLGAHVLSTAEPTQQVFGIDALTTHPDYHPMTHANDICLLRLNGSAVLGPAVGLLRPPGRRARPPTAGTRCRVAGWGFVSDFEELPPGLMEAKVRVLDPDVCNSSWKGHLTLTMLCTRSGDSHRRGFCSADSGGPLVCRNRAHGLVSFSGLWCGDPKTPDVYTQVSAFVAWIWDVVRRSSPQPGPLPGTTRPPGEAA
Description: 100nM of NSP4 was incubated with competing inhibitor—Ac-IVPR-CMK for 30 minutes at 37°C and then treated with different concentrations of probe—PK401 (2000nM and 1000nM) for 20 minutes at 37°C. Separately, 100nM of NSP4 was incubated with five different concentrations of probe- 2000nM, 1000nM, 100nM, 10nM, and 1 nM for 20 minutes in 37°C. As a control 100nM PK401 was incubated with assay buffer.
Samples were denatured and run in 4–12% SDS PAGE following transfer to nitrocellulose membrane. The membrane was blocked with 1.5% BSA in TBST overnight at 4°C and treated with IRDye800CW Streptavidin (dilution 1:10000 with 1.5% BSA in TBST) for 45 minutes. Then enzyme was visualized using a Li-cor fluorescence imager and Odyssey Molecular Modeling Software.
SDS-page and Western Blot […]
A standard SDS broad spectrum marker (Biorad) was used (Fig. 4A, lane 1). […]
minutes in 37° C (Fig. 4, lanes 4, 5, 6, 7, 8). […] Then enzyme was visualized using a Li-cor fluorescence imager and Odyssey Molecular Modeling Software. […]
The membrane was blocked with 1.5% BSA in TBST overnight at 4° C and treated with IRDye800CW Streptavidin (dilution 1:10000 with 1,5% BSA in TBST) for 45 minutes. Then PK401 was visualized using a Li-cor fluorescence imager and Odyssey Molecular Modeling Software.

[3] = target: T2, NSP4; assay: Fluorogenic substrate hydrolysis kinetics with NSP4; type: biochemical
Description: as §1
To 20μl of substrates dissolved in assay buffer at known concentration ranges (PK421 and PK431–320–1μM, PK417 and PK418–460–27μM), 80μl of NSP4 (2.9nM), preincubated for 20 minutes at 37°C in buffer, was added. Km, kcat and kcat/Km parameters/constants were calculated using GraphPad Prism and Excel software. Each experiment was repeated three times, and the results are presented as an average +/- S.D.

[4] = target: T3, NE (Homo sapiens, UniProt P08246); assay: Fluorogenic substrate hydrolysis kinetics with NE; type: biochemical
T3 construct: purchased Biocentrum, Krakow, Poland
T3 sequence (P08246 30-267): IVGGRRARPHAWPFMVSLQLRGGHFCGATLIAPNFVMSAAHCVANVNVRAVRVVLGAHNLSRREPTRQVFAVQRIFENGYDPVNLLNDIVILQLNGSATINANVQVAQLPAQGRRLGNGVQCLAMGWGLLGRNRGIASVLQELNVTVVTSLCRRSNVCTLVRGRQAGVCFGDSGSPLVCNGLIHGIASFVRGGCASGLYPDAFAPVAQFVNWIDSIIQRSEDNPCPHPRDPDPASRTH
Description: as §1, §2

[5] = Table 1, NSP4 2.9 nM preincubated 20 min 37°C, 50 mM Hepes, 0.1 M NaCl, 0.1% TRITON-X100, pH 7.45, ACC fluorescence ex 355/em 460 nm, average ± S.D., minimum of 2 experiments, SD, read-out: Km
[6] = Table 1, NSP4 2.9 nM, Hepes buffer pH 7.45, 37°C, ACC fluorescence, average ± S.D., minimum of 2 experiments, SD
[7] = Table 1 and text, NSP4 2.9 nM, Hepes buffer pH 7.45, 37°C, ACC fluorescence, average ± S.D., minimum of 2 experiments
[8] = Table 2, hydrolysis by NSP4, Hepes buffer pH 7.45

Substance | Km [3, 5] [µM] | kcat [3, 6] | kcat/Km [3, 7] | also measured
Ac-Glu(OBzl)-Lys(Ac)-hPro(OBzl)-Abu-ACC [assay substrate for PR3, reference compound] | – | – | – | Km ([1]; Table 3, assay substrate for PR3, read-out: Km of the substrate used for analysis): 13.7 ± 0.67 µM
Ac-IVPR-CH2Cl [reference compound] | – | – | – | Effect of NSP4 active site blocking on PK401 binding [2]: prevented binding
Ac-IVPR-{ACC} (SMILES CC[C@H](C)[C@H](NC(C)=O)C(=O)N[C@H](C(=O)N1CCC[C@H]1C(=O)N[C@@H](CCCNC(=N)N)C(=O)Nc1ccc2c(CC(N)=O)cc(=O)oc2c1)C(C)C) [PK417, fluorogenic NSP4 substrate of natural amino acids] | 96 ± 16 | 0.2 ± 0.02 s⁻¹ | 2100 M⁻¹ s⁻¹ and 2100 ± 300 M⁻¹ s⁻¹ | –
Ac-Nle(OBzl)-Met(O)2-Oic-Abu-ACC [assay substrate for NE, reference compound] | – | – | – | Km ([4]; Table 3, assay substrate for NE, read-out: Km of the substrate used for analysis): 0.28 ± 0.08 µM
Ac-RVPR-{ACC} (SMILES CC(=O)N[C@@H](CCCNC(=N)N)C(=O)N[C@H](C(=O)N1CCC[C@H]1C(=O)N[C@@H](CCCNC(=N)N)C(=O)Nc1ccc2c(CC(N)=O)cc(=O)oc2c1)C(C)C) [PK418, fluorogenic NSP4 substrate of natural amino acids] | 67 ± 10 | 0.06 ± 0.003 x 10^−3 s^-1 | 960 ± 190 M⁻¹ s⁻¹ | –
Ac-hCha-Phe(guan)-Oic-Arg-ACC [PK421, optimal fluorogenic NSP4 substrate with unnatural amino acids] | 61 ± 9.1 | 2.0 ± 0.54 s⁻¹ | 32000 M⁻¹ s⁻¹ and 32000.0 ± 4500 M⁻¹ s⁻¹ | Increase of kcat/Km relative to PK431 (Pro to Oic at P2) ([3]; NSP4, PK421 versus PK431): 39%; Fold more efficiently cleaved by NSP4 than PK417 (kcat/Km ratio) ([3]; NSP4, versus best substrate of only natural amino acids): around 15 times; kcat [3, 8]: 2.0 ± 0.54 s⁻¹; kcat/Km [3, 8]: 32000 ± 4500 M⁻¹ s⁻¹; Km ([3]; Table 2, hydrolysis by NSP4, Hepes buffer pH 7.45, read-out: Km): 61 ± 9.1 µM; kcat/Km ([1]; Table 2, hydrolysis by PR3, NA = no activity detected): Lack of measurable activity; kcat/Km ([4]; Table 2, hydrolysis by NE, NA = no activity detected): Lack of measurable activity
Ac-hCha-Phe(guan)-Pro-Arg-ACC [PK431, fluorogenic NSP4 substrate with unnatural amino acids] | 53 ± 0.8 | 1.2 ± 0.017 s⁻¹ | 23000 ± 11 M⁻¹ s⁻¹ | Km ([3]; Table 3, assay substrate for NSP4, read-out: Km of the substrate used for analysis): 53 ± 0.8 µM

From paper PMC4501687, “Design of a Selective Substrate and Activity Based Probe for Human Neutrophil Serine Protease 4” (PLoS ONE, 2015)
